Values after ≈ are worked out from the molar mass of the structure shown.
What was measured:
[1] = Solubility; assay type: physicochemical; conditions: for solubility compared to MK-28 (fold higher): relative to MK-28
Procedure: (§1) The solubility and lipophilicity of GLB7 and GLB11, two exemplary compounds according to some embodiments of the present invention, were measured compared to the PERK activator MK-28.

[2] = Lipophilicity (logD7.4); assay type: physicochemical
Procedure: as §1

[3] = molecular target: T1, PERK (Homo sapiens, UniProt Q9NZJ5); test: PERK activation: eIF2α phosphorylation relative to total eIF2α in HEK293 cells (Western blot); assay type: cell-based; conditions: for increase in eIF2α phosphorylation relative to total eIF2α: 24 hours
T1 construct: endogenous in cells; host or cells: HEK293
T1 sequence (Q9NZJ5 30-1116): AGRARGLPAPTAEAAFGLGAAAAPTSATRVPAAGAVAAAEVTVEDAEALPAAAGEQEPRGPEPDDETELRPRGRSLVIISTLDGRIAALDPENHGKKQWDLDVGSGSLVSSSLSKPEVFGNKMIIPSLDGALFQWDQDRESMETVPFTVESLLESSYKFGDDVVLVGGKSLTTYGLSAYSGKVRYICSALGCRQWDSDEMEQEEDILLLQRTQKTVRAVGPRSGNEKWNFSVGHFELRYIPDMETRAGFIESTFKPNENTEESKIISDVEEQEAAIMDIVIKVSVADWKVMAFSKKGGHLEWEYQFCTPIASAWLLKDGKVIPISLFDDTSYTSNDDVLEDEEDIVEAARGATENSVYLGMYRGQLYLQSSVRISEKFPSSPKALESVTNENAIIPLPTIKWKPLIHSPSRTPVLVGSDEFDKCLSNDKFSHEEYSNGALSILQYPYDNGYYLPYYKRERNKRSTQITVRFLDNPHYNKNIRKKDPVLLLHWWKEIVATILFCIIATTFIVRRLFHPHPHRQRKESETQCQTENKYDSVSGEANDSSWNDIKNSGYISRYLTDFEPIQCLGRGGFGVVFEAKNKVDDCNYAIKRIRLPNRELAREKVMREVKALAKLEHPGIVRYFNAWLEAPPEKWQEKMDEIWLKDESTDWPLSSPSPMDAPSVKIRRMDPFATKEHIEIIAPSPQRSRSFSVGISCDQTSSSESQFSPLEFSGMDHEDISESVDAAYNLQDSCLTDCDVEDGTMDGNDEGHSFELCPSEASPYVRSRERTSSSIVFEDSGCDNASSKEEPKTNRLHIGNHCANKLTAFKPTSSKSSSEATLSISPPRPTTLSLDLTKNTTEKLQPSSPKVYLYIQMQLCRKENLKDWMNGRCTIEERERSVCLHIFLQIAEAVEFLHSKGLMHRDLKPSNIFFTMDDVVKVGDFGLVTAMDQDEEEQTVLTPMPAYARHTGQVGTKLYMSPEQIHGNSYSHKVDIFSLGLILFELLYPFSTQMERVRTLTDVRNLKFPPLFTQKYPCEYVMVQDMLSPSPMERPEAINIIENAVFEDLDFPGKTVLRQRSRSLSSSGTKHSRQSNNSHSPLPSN
Procedure: FIG. 3A presents comparative bar graphs showing the effect of treatment with MK-28 or GLB7 (5 μM, 10 μM or 20 μM, as indicated), on the levels of eIF2α-phosphorylation (eIF2α-P) relatively to total eIF2α (eIF2α) in lysed HEK293 cells. Treatment with MK-28 began 24 hours before lysis. Data was obtained from quantification of Western blots (FIG. 3B), and immunoblotting was performed with anti-eIF2α-P or anti-total eIF2α antibodies.
For this purpose, HEK293 cells were untreated or treated with 5, 10 or 20 μM GLB7 or MK-28. After 24 hours, the cells were lysed and the phosphorylated eIF2α levels were measured relatively to the total eIF2α (a substrate of PERK).

[4] = tested on: STHdhQ111/111 cells; test: ER stress (tunicamycin)-induced apoptosis in STHdhQ111/111 cells; assay type: cell-based, murine; conditions: 10 μM compound, tunicamycin 48 hours, read from FIG. 2
Procedure: FIG. 2 presents comparative plots showing the apoptosis rate of STHdh^Q111/111 cells as a function of concentration of the exemplary compounds GLB11 and GLC19, following incubation with tunicamycin for 48 hours), as described for FIG. 1. P values *<0.05, **<0.01, ***<0.001. The asterisks indicate the significance compared to untreated cells.
Cell culture and transfections: Mouse embryonic fibroblasts (MEF) cells were grown as described in the art. Murine striatal cell line expressing full-length polyQ-expanded Htt (STHdhQ111/111) cells were grown as described in Leitman et al. [PLOS One 2014, 9 (3): e90803]. HEK 293 and VERO cells were grown in DMEM supplemented with 10% bovine calf serum at 37° C. under 5% CO2.
Apoptosis: Apoptosis was measured by cell cycle progression using propidium iodide (PI), considering the fraction beneath G0/G1.
Statistical analysis: Generally, the results are expressed as mean±standard deviation of 3 independent experiments. Apoptosis in the presence of tunicamycin and in the absence of other compounds was normalized to 100 to allow comparison between experiments. Significance by Two-tailed Student's t-test.
In order to assess the effect of the exemplary compounds on apoptosis, similar assays were performed in mouse embryonic fibroblasts (MEF; FIG. 1) and in STHdhQ111/111 cells (FIG. 2).

Row | SMILES | solubility [1] [µM] | solubility compared to MK-28 (fold higher) [1] [fold] | lipophilicity compared to MK-28 ([2]; relative to MK-28) | increase in eIF2α phosphorylation relative to total eIF2α ([3]; 5 μM) [%] | increase in eIF2α phosphorylation relative to total eIF2α ([3]; 10 μM) [%] | increase in eIF2α phosphorylation relative to total eIF2α ([3]; 20 μM) [%] | PERK activation compared to MK-28 ([3]; lowest examined dose of 5 μM) | reduction of apoptosis [4] | logD ([2]; pH 7.4)
1 | Oc1ccc(C=NNc2nc(-c3ccccc3)cc(-c3ccccc3)n2)cc1O (racemic) [GLB7, 4-((2-(4,6-diphenylpyrimidin-2-yl)hydrazono)methyl)benzene-1,2-diol] | 16 (≈ 6.12 µg/mL) | > 10 | decreased | ~70 | 50 | 65 | higher levels of PERK activation |  | 
2 | CN(NCc1ccc(O)c(O)c1)c1nc(-c2ccccc2)cc(-c2ccccc2)n1 [GLB11] | 6 (≈ 2.39 µg/mL) | > 4 |  |  |  |  |  | about 20% | 4.8
3 | CN(/N=C/c1ccc(C(F)(F)F)cc1)c1nc(-c2ccccc2)cc(-c2ccccc2)n1 [GLC19, (E)-2-(1-methyl-2-(4-(trifluoromethyl)benzylidene) hydrazinyl)-4,6-diphenyl pyrimidine] |  |  |  |  |  |  |  | about 20% | 

Source: patent publication US20250214982A1, “COMPOUNDS USABLE AS MODULATORS OF PERK ACTIVITY” (Ramot at Tel-Aviv University Ltd., priority 2022, published 2025)
